Broadly, the EC50 is the concentration at which the effect is half-maximal.

One molecule from paper PMC2934701 (The Journal of Biological Chemistry, 2010) can be followed below.

Numbering of substitutions follows the chain as printed.

Assay in all cases: Fluo-4 calcium assay, HEK293T + Galpha16gust44
What all share (format): cell-based

In assay [1] the target is T1, hTAS2R16 (ssr3-hTAS2R16) (Homo sapiens, UniProt Q9NYV7, E86Q).
T1 sequence (Q9NYV7 1-291 E86Q): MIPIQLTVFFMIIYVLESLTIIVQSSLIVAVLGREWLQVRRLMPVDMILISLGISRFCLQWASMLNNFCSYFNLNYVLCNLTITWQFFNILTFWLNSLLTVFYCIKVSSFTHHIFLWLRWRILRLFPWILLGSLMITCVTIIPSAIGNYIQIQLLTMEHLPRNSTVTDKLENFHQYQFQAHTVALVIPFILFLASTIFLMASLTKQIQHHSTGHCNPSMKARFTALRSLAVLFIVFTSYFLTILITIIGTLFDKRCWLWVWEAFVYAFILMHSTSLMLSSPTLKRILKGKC

Assay [2] concerns the target T2, hTAS2R16 (ssr3-hTAS2R16) (Homo sapiens, UniProt Q9NYV7, F93A).
T2 sequence (Q9NYV7 1-291 F93A): T1 sequence (Q9NYV7 1-291 E86Q) with Q86E, F93A

In assay [3] the target is T3, hTAS2R16 (ssr3-hTAS2R16) (Homo sapiens, UniProt Q9NYV7, H181L).
T3 sequence (Q9NYV7 1-291 H181L): T1 sequence (Q9NYV7 1-291 E86Q) with Q86E, H181L

Assay [4] deals with T4, hTAS2R16 (ssr3-hTAS2R16) (Homo sapiens, UniProt Q9NYV7, F93T).
T4 sequence (Q9NYV7 1-291 F93T): T1 sequence (Q9NYV7 1-291 E86Q) with Q86E, F93T

With `OCc1ccccc1O[C@@H]1O[C@H](CO)[C@@H](O)[C@H](O)[C@H]1O` [salicin], the EC50 on hTAS2R16 (ssr3-hTAS2R16) [1] is 1.25 mM; on hTAS2R16 (ssr3-hTAS2R16) [2] it was 11.5 mM; at hTAS2R16 (ssr3-hTAS2R16) [3], 12.9 mM; on hTAS2R16 (ssr3-hTAS2R16) [4], 12 mM.
